Measured values taken from US5627156A, “Polypeptide agonists for human interleukin-8” (University of Nebraska Board of Regents, priority 1994, dated 1997).
pKd: −log10 of the molar value. Where no end group is shown, it is not given here.

Columns and labels:
[1] = tested on: receptor sites on neutrophils; settings: cited from earlier work
[2] = tested on: Polymorphonuclear leukocytes (PMNs); test: Neutrophil Ca release by flow cytometry (Fluo-3); assay type: cell-based, human
Procedure: Polymorphonuclear leukocytes (≥95% neutrophils, PMNs) were isolated from heparinized (10 U/ml) blood collected from healthy volunteers. Erythrocytes were removed by 6% dextran sedimentation for 30 minutes at room temperature, and then the supernatant was subjected to Ficoll (Ficoll-Paque, Pharmacia LKB, Uppsala, Sweden) density gradient centrifugation. PMNs were obtained from the pellet. Contaminated erythrocytes were eliminated by one cycle of hypotonic lysis. After an additional washing step the cells were counted and adjusted to a final concentration of 5×10^6 /ml in RPMI 1640 (Gibco, Grand Island, N.Y.). Fluo-3 Loading--The loading procedure with Fluo-3 (Molecular Probes, Eugene, Oreg.) was carried out with PMNs suspended at a density of 5×10^6 /ml in fresh RPMI 1640 containing 2.0 μM Fluo-3 AM (prediluted in dimethyl sulfoxide; Sigma Chemicals) in polypropylene tubes (Falcon 2063, Becton Dickinson). […]
Measurement of [Ca^2+ ] in Flow Cytometry--Before addition of the stimuli the fluorescence channel of the FAGScan Plus (Becton Dickinson) was adjusted to find the basal fluorescence level of loaded but unstimulated PMNs. The samples were excited by an argon laser at 488 nm and emission was measured at 525 nm (green fluorescence, channel FL1). […] The fluorescence of Fluo-3-loadedcells was measured in arbitrary fluorescence units of mean channel fluorescence (channel FL1). […]

[3] = tested on: peripheral blood cells (PMNs, monocytes, lymphocytes); test: In vivo peripheral blood (PBL) cellularity after ip injection; parameters: species or system C57BL/6 mice; settings: single ip injection
Procedure: (§1) A stock solution of 5 mg/ml of Analog 1 was prepared using Dulbecco's phosphate buffered saline D-PBS. The solution was made 5× to compensate for the injection of 0.2 ml ip. The mice were dosed at various times with various doses of analog 1. The ip administration was with a volume of 0.2 ml. In addition, excipient control animals were injected.
(§2) The mice used for the study were C57BL/6 females, which were obtained from Jackson Laboratories. The mice used in these studies were at 8-10 weeks of age and weighed 15-18 g. The mice were housed in conventional cages, fed pelleted food and given water ad libitum.
At various times following injection of Analog 1 the mice were bled from retinal orbital plexus with 40 μl removed into heparanized capillary tubes and the blood analyzed using a Serona Baker 9000 Blood analyzer. In addition, blood films were made and differentials undertaken on at least 200 cells/sample.

[4] = tested on: peritoneal cells (PMNs, monocytes/macrophages, lymphocytes); test: In vivo chemotactic activity into the peritoneum after ip injection; parameters: species or system C57BL/6 mice
Procedure: as §1, §2
The mice were sacrificed by ether overdose, the ventral skin reflected and the peritoneum lavaged with three 5 ml lavages of calcium-, magnesium-freeHBSS. At one, two, four, eight and 24 hours, following injection, three to five mice and/or control mice were lavaged and the cells collected in 15 ml tubes. The peritoneal cells were then centrifuged and counted. In addition, a differential was done on the peritoneal cells in a cytospin preparation. For the cytospin, 25 μl of bovine albumin (Sigma Lot #70H0183) was first placed in the bottom of the chamber, and 100 μl of cell suspension (100,000 cells) added. It was spun at 1000 rpm for 5 minutes and then left to dry. Next, they were placed in leukostat fixative solution for 5 seconds followed by 45 seconds in Leukostat solution 1 and 45 seconds in Leukostat solution 2 and finally washed in deionized H2 O for 5 seconds and allowed to dry. The slides were analyzed under microscope for differentials.

[5] = Biological activity of the analog compared to analog 1 (test not specified); settings: C-terminally truncated, residues 4 to 17
Procedure: The biological activity of an analog of the invention is determined by comparing the analog with naturally occurring IL-8.

## Interleukin 8 [IL-8]
[1]
  pKd: 9.70
[2]; 77 amino acid IL-8 at 10^-6 M, FIG. 8B
  neutrophil Ca concentration: the majority of neutrophils showed an increase in calcium concentration

## ELRCQCIKTYSKPFHPK (cysteine pairing not given here) [Analog 1, structural mimic of IL-8 from amino acid residues 4 to 20]
[2]; FIG. 10A and B, concentration not given
  neutrophil Ca concentration: induced a change in neutrophil Ca concentrations
[3]; FIG. 2
  PBL cellularity: significant increase
[3]; FIG. 5
  frequency of PMNs in the peripheral blood: increase
[3]; FIG. 6
  absolute number of PMNs and monocytes in the peripheral blood: significant increase
[4]; ip injection of 10 μg, FIG. 7
  kinetics of the in vivo chemotactic response in the peritoneum: greatest increase observed was in the number of macrophages and PMNs
[4]; ip injection, FIG. 3
  primary cell type elicited in the peritoneum: PMNs
[4]; ip injection, FIG. 4
  increase in PMN into the peritoneum: four-fold
  increase in monocyte/macrophages into the peritoneum: two-fold
[4]; single ip injection, 0.1-500 μg/animal, FIG. 1
  dose of optimal activity on peritoneal cellularity: 10 μg/animal

## Glu-Leu-Arp-Cys-Gln-Cys-Ile-Lys-Thr-Tyr-Ser-Lys-Pro-Phe (ELRCQCIKTYSKPF) [Analog 2, structural mimic of human IL-8 from amino acid residues 4 to 17]
[5]
  activity compared to analog 1: slight loss of activity
